“And” between values parts separate entries of the source, which are not always exact repeats. Equal entries are not always repeated.

A short description of data set [1]: Stability in human liver S9 fraction. It counts as in vitro ADME. How it is done: Proteins were deposited on ice for 15 min. The samples were then centrifuged for 10 min at 3000 rpm, and the supernatant (150 μl) was sampled for analysis.
Tolbutamide (Fluka) was used as the internal standard.

A further data set has as its system Huh7 cells. Description: Cytotoxicity in Huh7 cells, ATPLite kit. It counts as cell-based, human. The method, then: The cytotoxicity of tested compositions comprising the prodrugs was evaluated concurrently in the same cell line Huh7 using an ATPLite kit (Perkin-Elmer, Boston, USA) in accordance with the manufacturer's instruction. The cell suspension in complete culture medium (DMEM 1×, Cellgro; cat. #10-013-CV) was transferred into 96-well plates with black walls and transparent bottoms (50 μl/well) with a final density of 7500 cells per well. Eighteen hours after planting the cells, serial drug dilutions (50 μl/well) were added. The plate with cells was incubated for 4 days at 37° C. in a humidified 5% CO2 atmosphere. The cells were then twice washed with PBS (200 μl/well) and lysed by adding a lytic buffer (50 μl/well); all reagents were taken from the ATPLite kit. Following a 5-minute stirring on a shaker, a substrate was added (50 μl/well). After an additional 5-minute incubation, the plate was kept for 10 minutes in the dark, and luminescence in the wells was measured using the multifunctional reader Victor^3 V 1420 (Perkin Elmer). The values of CC50 for tested prodrugs were measured from a cytotoxicity curve plotted using the GraphPad Prizm software.
In general terms: ATP-based viability assays read luminescence as a measure of living cells.

The conditions of data set [2]: from Sofia et al. J. Med. Chem. 2010; cited from earlier work.

Turning to `C[C@H](N[P@](=O)(OC[C@H]1O[C@@H](n2ccc(=O)[nH]c2=O)[C@](C)(F)[C@@H]1O)Oc1ccccc1)C(=O)OC1CCC1` [Prodrug 1.1, cyclobutyl (S)-2-{(S)-[(2R,3R,4R,5R)-5-(3,4-dihydro-2,4-dioxo-2H-pyrimidin-1-yl)-3-hydroxy-4-methyl-4-fluoro-tetrahydrofuran-2-ylmethoxy]-phenoxy-phosphorylamino}-propanoate], the “metabolic rate in human liver microsomal S9 fraction, times faster than cyclohexyl ester of formula A1” value in data set [1] (ratio of T1/2 vs A1) stood at 28 times. Further, the “metabolic rate in human liver microsomal S9 fraction, times faster than Sovaldi” value in data set [1] (ratio of T1/2 vs Sovaldi) is given as 11 times. This compound showed a CC90 in the data set with Huh7 cells (Huh7, 10% FBS) of more than 100 µM. The half-maximal cytotoxic concentration (CC50) (usually the concentration that lowers cell viability or growth by half) in the data set on Huh7 cells (Huh7, ATPLite, 4 days) was more than 100 µM.
Consider `CC(C)OC(=O)[C@H](C)N[P@](=O)(OC[C@H]1O[C@@H](n2ccc(=O)[nH]c2=O)[C@](C)(F)[C@@H]1O)Oc1ccccc1` [Sovaldi®, Sofosbuvir], for which, in data set [2], the “T1/2 human S9” value was 34.2 min and 32.4 min.

(Values after patent US10683315B2, “Prodrug of an HCV NS5B polymerase inhibitor and method of production and application thereof” (priority 2017, dated 2020).)
